# The supplement of paper PMC11562712
# Assay: first-order primary biodegradation rate constant k (sorption-corrected, fDis-corrected) (d-1); higher = faster biodegradation
# Outline: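 River water with sieved sediment (50 g wet solid L^–1) from German, Swiss, Spanish and Greek river segments was spiked with 129 compounds at 1 μg L^–1 each. It was shaken in the dark at river water temperature (20.5 ± 3.5 °C) for 10 days. Filtered water-phase subsamples were analysed by UHPLC-Orbitrap-MS/MS. First-order k came from log peak-area regression over three replicates, corrected for azide-sterilised sorption-control dissipation and divided by dissolved fraction; invalid fits excluded.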
# [1] = river segment: Germany (DE) H_Contam, incubation temperature 24 °C
# [2] = river segment: Germany (DE) T_Contam, incubation temperature 24 °C
# [3] = river segment: Germany (DE) T_Pris, incubation temperature 24 °C
# [4] = river segment: Greece (EL) A_Contam, incubation temperature 19 °C
# [5] = river segment: Greece (EL) G_Pris, incubation temperature 19 °C
# [6] = river segment: Greece (EL) L_Contam, incubation temperature 19 °C
# [7] = river segment: Spain (ES) B_Contam, incubation temperature 24 °C
# [8] = river segment: Spain (ES) C_Contam, incubation temperature 24 °C
# [9] = river segment: Spain (ES) F_Pris_Salt, incubation temperature 24 °C
# [10] = river segment: Spain (ES) L_Contam, incubation temperature 24 °C
# [11] = river segment: Switzerland (CH) C_Contam, incubation temperature 17 °C
# [12] = river segment: Switzerland (CH) R_Contam, incubation temperature 17 °C
# [13] = river segment: Switzerland (CH) U_Contam, incubation temperature 17 °C
# [14] = river segment: Switzerland (CH) U_Pris, incubation temperature 17 °C
# [15] = river segment: Greece (EL) G_Contam, incubation temperature 19 °C
first-order primary biodegradation rate constant k [1],first-order primary biodegradation rate constant k [2],first-order primary biodegradation rate constant k [3],first-order primary biodegradation rate constant k [5],first-order primary biodegradation rate constant k [6],first-order primary biodegradation rate constant k [7],first-order primary biodegradation rate constant k [8],first-order primary biodegradation rate constant k [9],first-order primary biodegradation rate constant k [10],first-order primary biodegradation rate constant k [11],first-order primary biodegradation rate constant k [12],first-order primary biodegradation rate constant k [13],first-order primary biodegradation rate constant k [14],first-order primary biodegradation rate constant k [15],SMILES,first-order primary biodegradation rate constant k [4]
1.06,0.52,0.422,0.0811,0.27,0.18,0.543,0.0548,0.55,0.764,0.292,0.186,0.12,–,Cc1ccc(S(=O)(=O)O)cc1 [p-Toluenesulfonic acid],0.369
0.161,–,–,0.0725,–,–,–,–,0.426,–,–,0.0556,–,–,CCCCC1=NC2(CCCC2)C(=O)N1Cc1ccc(-c2ccccc2-c2nnn[nH]2)cc1 [Irbesartan],–
–,0.282,–,–,–,0.421,0.0396,0.0487,–,0.0523,–,1.6,0.68,9.42,CC(C)(C)C(=O)C(Oc1ccc(Cl)cc1)n1ccnc1 (centres undefined) [Climbazole],–
1.43,–,–,–,5.22,–,–,–,0.469,6.13,0.288,0.0899,–,1.93,"CCCCC(CC)COCC(O)CO (centres undefined) [3-((2-Ethylhexyl)oxy)propane-1,2-diol]",0.277
0.0901,0.0769,0.0208,0.0358,0.0249,0.0306,0.0243,–,0.11,0.0409,0.0581,0.034,0.0607,–,CC(C)(Oc1ccc(Cl)cc1)C(=O)O [Clofibric acid],0.0823
–,–,0.212,–,7.88,–,–,0.145,–,–,–,–,–,0.108,CO[C@@H]1[C@@H](OC(N)=O)[C@@H](O)[C@H](Oc2ccc3c(O)c(NC(=O)c4ccc(O)c(CC=C(C)C)c4)c(=O)oc3c2C)OC1(C)C [Novobiocin],–
0.00417,4.92,–,–,19.9,0.279,0.06,–,–,0.0178,0.288,0.0832,0.185,8.04,CN(C)CCCC1(c2ccc(F)cc2)OCc2cc(C#N)ccc21 (centres undefined) [Citalopram],–
0.297,0.215,0.165,0.258,0.42,0.253,0.218,0.241,0.252,0.177,0.263,0.332,0.606,0.171,COCCc1ccc(OCC(O)CNC(C)C)cc1 (centres undefined) [Metoprolol],0.291

SMILES,first-order primary biodegradation rate constant k [1],first-order primary biodegradation rate constant k [2],first-order primary biodegradation rate constant k [3],first-order primary biodegradation rate constant k [5],first-order primary biodegradation rate constant k [6],first-order primary biodegradation rate constant k [7],first-order primary biodegradation rate constant k [8],first-order primary biodegradation rate constant k [9],first-order primary biodegradation rate constant k [10],first-order primary biodegradation rate constant k [11],first-order primary biodegradation rate constant k [12],first-order primary biodegradation rate constant k [13],first-order primary biodegradation rate constant k [14],first-order primary biodegradation rate constant k [15],first-order primary biodegradation rate constant k [4]
NCC1(CC(=O)O)CCCCC1 [Gabapentin],0.0147,0.183,–,0.0145,–,0.811,0.119,0.119,0.235,–,0.109,0.0703,0.15,–,0.0518
CC1(C(=O)Nc2ccc(O)c(Cl)c2Cl)CCCCC1 [Fenhexamid],0.151,0.656,0.165,0.641,0.493,–,0.109,0.0571,0.189,–,0.0432,–,0.988,–,0.189
O=[N+]([O-])/N=C1\NCCN1Cc1ccc(Cl)nc1 [Imidacloprid],0.029,0.0495,–,–,–,–,0.0128,–,–,–,–,–,0.00932,–,–
Cc1cc(Cl)ccc1OC(C)C(=O)O (centres undefined) [Mecoprop],0.0948,0.267,0.0247,0.0919,0.0787,0.0613,0.159,0.0616,0.0286,0.0712,0.201,0.163,0.417,0.021,0.155
COc1ccc(C(CN(C)C)C2(O)CCCCC2)cc1 (centres undefined) [Venlafaxine],–,–,–,–,1.2,0.0466,–,–,0.0394,0.00206,–,0.0953,–,0.204,1.22
